Test results published in article PMC9636434, “Discovery of small molecule agonists of the Relaxin Family Peptide Receptor 2” (Communications Biology, 2022).
Several values for one entry are separate records, joined by “and”; a condition that tells them apart may be missing. Equal entries are not always repeated.

Biological target: T1, human RXFP1 (Homo sapiens, UniProt Q9HBX9)
T1 construct: FLAG (N); expressed in transfected cells
T1 sequence (Q9HBX9 1-757): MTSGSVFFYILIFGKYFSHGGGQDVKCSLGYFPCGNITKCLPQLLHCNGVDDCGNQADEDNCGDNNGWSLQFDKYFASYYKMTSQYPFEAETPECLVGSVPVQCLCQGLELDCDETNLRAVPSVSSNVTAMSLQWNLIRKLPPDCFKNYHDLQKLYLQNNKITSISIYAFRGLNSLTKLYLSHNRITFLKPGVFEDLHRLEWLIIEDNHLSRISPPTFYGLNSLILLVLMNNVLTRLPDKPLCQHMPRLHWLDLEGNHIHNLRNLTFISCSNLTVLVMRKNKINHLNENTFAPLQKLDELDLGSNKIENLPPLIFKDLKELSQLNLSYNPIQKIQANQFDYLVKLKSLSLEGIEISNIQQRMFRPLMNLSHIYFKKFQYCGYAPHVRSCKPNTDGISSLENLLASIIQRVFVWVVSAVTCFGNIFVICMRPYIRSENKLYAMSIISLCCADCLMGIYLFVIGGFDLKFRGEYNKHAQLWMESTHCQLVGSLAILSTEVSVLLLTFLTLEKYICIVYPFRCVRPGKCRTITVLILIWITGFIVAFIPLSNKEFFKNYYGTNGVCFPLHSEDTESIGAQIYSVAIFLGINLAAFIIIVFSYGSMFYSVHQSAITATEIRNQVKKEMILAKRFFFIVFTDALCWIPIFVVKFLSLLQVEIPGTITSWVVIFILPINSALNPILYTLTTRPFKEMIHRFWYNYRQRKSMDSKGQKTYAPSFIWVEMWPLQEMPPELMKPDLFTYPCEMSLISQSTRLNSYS
Assay: HTRF cAMP counter-screen in HEK293T cells expressing human RXFP1
Format: cell-based
Settings: for % Eff (cAMP): human RXFP1, experiments (1)-(3)
Experimental: The HTRF Gs dynamic cAMP assay kit (CisBio, Bedford, MA) was used to measure intracellular cAMP accumulation in HEK293T cells (ATCC, Manassas, VA)[56]. […] The cell stock was verified mycoplasma free and authenticated by ATCC. Transient transfection was accomplished by treating cells in a 6-well plate with a mixture of 2 μg plasmid and 6 μL Lipofectamine 2000 (Invitrogen, Waltham, MA) per manufacturer’s protocol and incubating overnight. For cAMP measurement in 96-well format, HEK293T cells stably transfected with human RXFP2 (HEK-RXFP2), human RXFP1 (HEK-RXFP1), mouse Rxfp1 (HEK-Rxfp1) or transiently transfected with human RXFP1-RXFP2 chimeric receptors were seeded between 7500 and 30,000 cells per well, depending on cell line responsiveness, in serum-free DMEM medium and incubated overnight at 37 °C, 5% CO2. After 18 h, cells were treated with a titration of compound, 2 μM forskolin, or DMSO vehicle. Control wells were also treated with a titration of INSL3 (Phoenix Pharmaceuticals, Burlingame, CA) or human recombinant relaxin 2 (Peprotech, Cranbury, NJ). For the RXFP2 antagonist experiment, cells were co-treated with 0.28 μM compound or 30 nM INSL3 and a titration of the INSL3 B dimer antagonist[38],[39]. For the INSL3 allosteric modulation experiment, cells were co-treated with 0.025, 0.0025, or 0.00025 μM of compound and a titration of INSL3. Cells were incubated for 1 h at 37 °C, 5% CO2, and then kit cAMP-d2 and anti-cAMP antibody were added per manufacturer protocol. Plates were incubated for 1 h at room temperature and the signal was read on a CLARIOstar plate reader (BMG Labtech, Ortenberg, Germany) at 665 and 620 nm emission wavelengths. […]
receptors. HTRF cAMP counter-screen of RXFP2 agonists in HEK293T cells expressing a human RXFP1 and b mouse RXFP1. Relaxin 2 was used as positive control for RXFP1 receptor activation. Results are expressed as mean ± SEM of 3

O=C1Nc2ccc(-c3cc(C(F)(F)F)cc(C(F)(F)F)c3)cc2C(=O)N2CCN(C(=O)COc3ccc(OC(F)(F)F)cc3I)C[C@@H]12 [compound 6641]
activation of human RXFP1 receptor (HTRF cAMP): do not activate
% Eff (cAMP) (Log [M] -4.60): -1.3757% and -1.734% and -1.01%
% Eff (cAMP) (Log [M] -5.60): -1.852% and -1.326% and -2.683%
% Eff (cAMP) (Log [M] -6.60): -1.88% and -0.1839% and -0.6843%
% Eff (cAMP) (Log [M] -7.60): -1.108% and 0.09011% and -0.3682%
